Reference: patent US20230365561A1, “BETA-LACTAMASE INHIBITORS AND THEIR PREPARATION” (NINGXIA ACADEMY OF AGRICUL TURE AND FORESTRY SCIENCES, priority 2020, published 2023)
Structures can show the parent of a compound that is named as a salt.

Experiments:
Type in all cases: cell-based
[1] = system: E. coli clinical isolate (strain 1); test: MIC by broth microdilution (alone and in combination with meropenam), strain 1; details: Escherichia coli, compound alone, read-out: MIC, antibacterial activity of example alone
Method in brief: (§1)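 MIC values, in mg/L, record the lowest concentration giving no visible growth after 18-24 h at 37° C. Bacteria at approx. 5x10^5 CFU/mL in cation-adjusted Mueller-Hinton Broth II faced meropenem serially diluted 0.125-64 mg/L, alone or with test compound held at 4 µg/mL.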

E. coli 8739 (strain 2) = test: MIC by broth microdilution (alone and in combination with meropenam), strain 2; details: Escherichia coli, compound alone, read-out: MIC, antibacterial activity of example alone
Method in brief: as §1

[2] = system: K. pneumoniae clinical isolate (strain 3); test: MIC by broth microdilution (alone and in combination with meropenam), strain 3; details: Klebsiella pneumoniae, compound alone, read-out: MIC, antibacterial activity of example alone
Method in brief: as §1

[3] = system: K. pneumoniae 700603 (strain 4); test: MIC by broth microdilution (alone and in combination with meropenam), strain 4; details: Klebsiella pneumoniae, compound alone, read-out: MIC, antibacterial activity of example alone
Method in brief: as §1

[4] = system: E. cloacae clinical isolate (strain 5); test: MIC by broth microdilution (alone and in combination with meropenam), strain 5; details: Enterobacter cloacae, compound alone, read-out: MIC, antibacterial activity of example alone
Method in brief: as §1

[5] = system: E. cloacae 700323 (strain 6); test: MIC by broth microdilution (alone and in combination with meropenam), strain 6; details: Enterobacter cloacae, compound alone, read-out: MIC, antibacterial activity of example alone
Method in brief: as §1

[6] = system: A. baumannii clinical isolate (strain 7); test: MIC by broth microdilution (alone and in combination with meropenam), strain 7; details: Acinetobacter baumannii, compound alone, read-out: MIC, antibacterial activity of example alone
Method in brief: as §1

[7] = system: A. baumannii 19606 (strain 8); test: MIC by broth microdilution (alone and in combination with meropenam), strain 8; details: Acinetobacter baumannii, compound alone, read-out: MIC, antibacterial activity of example alone
Method in brief: as §1

[8] = system: P. aeruginosa clinical isolate (strain 9); test: MIC by broth microdilution (alone and in combination with meropenam), strain 9; details: Pseudomonas aeruginosa, compound alone, read-out: MIC, antibacterial activity of example alone
Method in brief: as §1

[9] = system: P. aeruginosa 9027 (strain 10); test: MIC by broth microdilution (alone and in combination with meropenam), strain 10; details: Pseudomonas aeruginosa, compound alone, read-out: MIC, antibacterial activity of example alone
Method in brief: as §1

Measured: MIC

N=C(N)NOCCC(=O)NC(=N)[C@@H]1CC[C@@H]2CN1C(=O)N2OS(=O)(=O)O [Ex.43, (2S,5R)-2-(N-(3-(guanidinooxy)propanoyl)carbamimidoyl)-7-oxo-1,6-diazabicyclo[3.2.1]octan-6-yl Hydrogen Sulfate]
> 64 µg/mL: all assays above

N=C(NC(=O)CC1CCCCC1)[C@@H]1CC[C@@H]2CN1C(=O)N2OS(=O)(=O)[O-].[Na+] [Ex.36, Sodium (2S,5R)-2-(N-(2-cyclohexylacetyl)carbamimidoyl)-7-oxo-1,6-diazabicyclo[3.2.1]octan-6-yl Sulfate]
> 64 µg/mL: all assays above

N=C(NC(=O)c1cscn1)[C@@H]1CC[C@@H]2CN1C(=O)N2OS(=O)(=O)[O-].[Na+] [Ex.16, Sodium (2S,5R)-7-oxo-2-(N-(thiazole-4-carbonyl)carbamimidoyl)-1,6-diazabicyclo[3.2.1]octan-6-yl Sulfate]
> 64 µg/mL: all assays above

N=C(NC(=O)Cc1ncccn1)[C@@H]1CC[C@@H]2CN1C(=O)N2OS(=O)(=O)[O-].[Na+] [Ex.25, Sodium (2S,5R)-7-oxo-2-(N-(2-(pyrimidin-2-yl)acetyl)carbamimidoyl)-1,6-diazabicyclo[3.2.1]octan-6-yl Sulfate]
> 64 µg/mL: all assays above

N=C(NC(=O)Cn1ccnc1)[C@@H]1CC[C@@H]2CN1C(=O)N2OS(=O)(=O)[O-].[Na+] [Ex.39, Sodium (2S,5R)-2-(N-(2-(1H-imidazol-1-yl)acetyl)carbamimidoyl)-7-oxo-1,6-diazabicyclo[3.2.1]octan-6-yl Sulfate]
> 64 µg/mL: all assays above

N=C(NC(=O)c1cocn1)[C@@H]1CC[C@@H]2CN1C(=O)N2OS(=O)(=O)[O-].[Na+] [Ex.20, Sodium (2S,5R)-2-(N-(oxazole-4-carbonyl)carbamimidoyl)-7-oxo-1,6-diazabicyclo[3.2.1]octan-6-yl Sulfate]
> 64 µg/mL: all assays above

CC(=O)N1CCC(C(=O)NC(=N)[C@@H]2CC[C@@H]3CN2C(=O)N3OS(=O)(=O)[O-])CC1.[Na+] [Ex.4, Sodium (2S,5R)-2-(N-(1-acetylpiperidine-4-carbonyl)carbamimidoyl)-7-oxo-1,6-diazabicyclo[3.2.1]octan-6-yl Sulfate]
> 64 µg/mL: all assays above
